Results as given in patent publication US20260137662A1, “CD11B AGONISTS FOR TREATMENT OF AUTOIMMUNE DISEASE” (Rush University Medical Center, priority 2022, published 2026).

Legend:
[1] = tested on: TLR-stimulation dependent pro-inflammatory pathways; assay: suPAR and TNFa secretion from myeloid (RAW) cells stimulated with TLR-stimulants or PMA (ELISA); assay type: cell-based, murine; details: co-treatment TLR-stimulant (LPS, PMA, Pam2CSK4, Pam3CSK4, IMQ) and LA1 (20 uM), 4 hours
Experimental: (§1) FIG. 2A illustrates the levels of biomarker suPAR secretion from RAW cells after treatment with LPS (50ng/ml), PMA (0.1 ug/mL), Pam2CSK4 (0.1 ug/mL), Pam3CSK4 (0.1 ug/mL), Imiquimod (IMQ) (20 ug/mL), LA1 (20 uM), or co-treatments. Bars show mean with SD (N=3) (*P<0.05, **P<0.01, ***P<0.001, ****P<0.0001).
as §1, with “2B” for “2A”, “biomarker (A)” for “biomarker”, “suPAR and (B) TNF-a” for “suPAR”
(§2) The effect of LA1 on TLR-stimulation dependent pro-inflammatory pathways was studied by stimulating myeloid cells with different TLR-stimulants (lipopolysaccharide (LPS), Pam2CSK 4, imiquimod (IMQ)) or with phorbol 12-myristate 13-acetate (PMA) and co-treating with LA1. The levels of suPAR (pg/mL) and TNFa (pg/mL) in cell supernatant were measured 4 hours after treatment using ELISA. […] Relative gene expression was also assessed in myeloid cells treated with Poly(I:C), a known toll-like receptor (TLR) agonist, and co-treated with LA1.

TLR signaling pathways = assay: Relative gene expression in RAW cells treated with Poly(I:C); assay type: cell-based, murine; details: Poly(I:C) (0.1 ug/mL) and LA1 (20 uM) co-treatment, 4 hours
Experimental: FIG. 2C illustrates relative gene expression of biomarker uPAR in RAW cells after 4 hours of treatment with Poly(I:C) (0.1 ug/mL), LA1 (20 uM), and Poly(I:C) […] LA1 co-treatment.
FIG. 2D illustrates relative gene expression biomarker IL-1b in RAW cells after 4 hours of treatment with Poly(I:C) (0.1 ug/mL), LA1 (20 uM), or Poly(I:C) and LA1 co-treatment.
as §2

MRL/lpr mice = assay: MRL/lpr mouse model of lupus and LN: alopecia and skin lesions; assay type: in vivo; details: for alopecia (nose area): Mrl/lpr mice
Text: FIG. 13B illustrates percentage of skin effected by alopecia on the nose area of untreated mice (Ctrl), mice treated with a vehicle (Veh), and mice treated with LA1 (LA1). […] Bars show mean +/−SEM (n=5).
FIG. 13C illustrates lesion size (mm) in untreated mice (Ctrl), mice treated with a vehicle (Veh), and mice treated with LA1 (LA1). […] Bars show mean +/−SEM (n=5).
To evaluate the efficacy of LA1 as a treatment for LN, MRL/ipr mouse models were used. MRL/lpr mice develop high circulating levels of IFN-I, systemic inflammation and multi-organ pathology, including skin, vascular, and kidney damage, and LN. Thus, this genetic mouse model mimics several features of human lupus and LN.

## O=C(O)c1ccc(-c2ccc(/C=C3\SC(=S)N(Cc4ccccc4)C3=O)o2)cc1 [LA1, (Z)-4-(5-((3-benzyl-4-oxo-2-thioxothiazolidin-5-ylidene)methyl)furan-2-yl)benzoic acid]
[1]
  levels of biomarker TNFa in cell supernatant: significantly reduced
  levels of biomarker suPAR in cell supernatant: significantly reduced
TLR signaling pathways
  relative gene expression of biomarker IL-1b: significantly reduced
  relative gene expression of biomarker uPAR: significantly reduced
MRL/lpr mice; Mrl/lpr mice treated with LA1, co-treatment and delayed treatment
  skin lesions: reduces clinical symptoms
MRL/lpr mice; LA1 as co-treatment
  alopecia (nose area): reduction in alopecia
MRL/lpr mice; LA1 treatment after 2-weeks of disease onset
  alopecia (nose area): reduction in alopecia
